The data set can be described thus: Solubility of crystalline forms. Type of data set: physicochemical. An excerpt: wherein R^1-R^4, P, X, Y, m, n and Ar are as defined therein. One such compound is N-(3,5-dichloropyrid-4-yl)-4-difluoromethoxy-8-methanesulfonamido-dibenzo[b,d]furan-1-carboxamide, the International nonproprietary name for which is oglemilast. The pharmacology and safety profiles for oglemilast have been described in, for example, Eur. Respir. J. (2004) 24 (Suppl 48): Abst 1391. Both US 2005/0027129 and International Publication No. WO 2006/040652 disclose methods for preparing oglemilast and pharmaceutically acceptable salts thereof, such as the sodium salt (see, e.g., Examples 30 and 31 of US publication No. 2005/0027129) and generically disclose formulations of oglemilast and the corresponding sodium salt. In these formulations, the active ingredient is present substantially in a crystalline form. […] In an attempt to increase the bioavailability of formulations containing, e.g., oglemilast, salt forms of the active ingredient have typically been used.

Counter-ions that a name gives are not always drawn.

Take `CS(=O)(=O)Nc1ccc2oc3c(OC(F)F)ccc(C(=O)Nc4c(Cl)cncc4Cl)c3c2c1` [crystalline oglemilast, N-(3,5-dichloropyrid-4-yl)-4-difluoromethoxy-8-methanesulfonamido-dibenzo[b,d]furan-1-carboxamide]: the solubility result is “approximately 0.2 μg/mL”.
To `CS(=O)(=O)Nc1ccc2oc3c(OC(F)F)ccc(C(=O)Nc4c(Cl)cncc4Cl)c3c2c1` [crystalline sodium salt of oglemilast] belongs “approximately 140 μg/mL”.

The record behind these values is patent US20080194638A1, “BIOAVAILABLE FORMULATIONS OF HETEROCYCLIC COMPOUNDS” (Forest Laboratories Holdings Limited, priority 2007, published 2008).
